Measured values as given in BigSolDB 2.1.

CCOc1ccc2ccccc2c1C(=O)O
solubility (mole fraction)
Conditions | 278.15 K | 283.15 K | 288.15 K | 293.15 K | 298.15 K | 303.15 K | 308.15 K | 313.15 K | 318.15 K | 323.15 K
in ethanol | 0.0268 | 0.0325 | 0.0392 | 0.0469 | 0.0565 | 0.0688 | 0.0836 | 0.101 | 0.119 | 0.136
in methanol | 0.0304 | 0.037 | 0.0443 | 0.0552 | 0.0671 | 0.0821 | 0.0951 | 0.114 | 0.134 | 0.151
in n-propanol | 0.0212 | 0.0236 | 0.0283 | 0.0345 | 0.0424 | 0.0511 | 0.0632 | 0.0779 | 0.092 | 0.114
